# In US12521387B2, “Prophylactic or therapeutic drug for neurodegenerative diseases” (Medilabo RFP, Inc., priority 2019, dated 2026):
# “Also recorded” adds a separate entry of the source. Where two headings read alike, the source gives them in different places.
# Legend:
# [1] = test system: patients having mild to moderate Alzheimer's disease; conditions: 119 patients, 52 weeks; 500 mg, increased by 500 mg every 13 weeks to 1000 mg twice per day; cited from earlier work
# APPOSK mice [2] = assay: Morris water maze behavioral test (spatial reference memory, cognitive function) in Alzheimer's disease model mice; assay type: in vivo, mouse; conditions: for Cognitive function (Morris water maze): transnasal
# From the text: Eleven-month-old male APPOSK mice (Tomiyama et al. J Neurosci. 2010; 30: 4845-56) were provided. The body weight of each of the APPOSK mice was about 30 g. Sixty APPOSK mice were divided into five groups A to E each including 12 mice. Separately, 12 wild-type mice (non-Tg littermate) of the same month old were provided. The APPOSK mice were amyloid precursor protein (APP) transgenic mice (Alzheimer's disease models), and had accumulation of amyloid-β (Aβ) protein.
# For oral administration, an oral sound for rodents was used; for transnasal administration, pipetman (white tip) was used; and for subcutaneous administration, an injection syringe was used. All of these administrations were carried out under non-anesthesia.
# The behavioral test was carrying out by determining the spatial reference memory of each of the mice using a Morris water maze in accordance with the method described in Umeda et al. Brain 2016; 139: 1568-86.
# Thirteen-month-age (13 mo) individuals of the APPOSK mice shown in Test Example 1 were used.
# APPOSK mice [3] = assay: Liver enzymes AST (GOT) and ALT (GPT) in serum (hepatic dysfunction); assay type: in vivo, mouse; conditions: for AST level (in words): transnasal
# From the text: Blood was collected from each of the mice after the completion of the behavioral test, and then serum was separated from the blood to prepare a serum sample.
# [4] = test system: Tauopathy model mice (Tau784); assay: Morris water maze behavioral test (cognitive function) in tauopathy model mice; assay type: in vivo, mouse; conditions: Tau784 mice 14-15 mo, transnasal, every day for 1 month
# From the text: Tauopathy model mice (Umeda T et al., Am. J. Pathol. 183, 211-225, 2013) were provided, 14- to 15-month-old individuals of the model mice were used as subjects of administration.
# [5] = test system: causative protein for a neurodegenerative disease; assay: Suppression of the aggregation of a causative protein for a neurodegenerative disease; conditions: confirmed by the present inventors
# Aβ oligomers = target: T1, Aβ oligomers (Homo sapiens, UniProt P05067, DEL693-693); assay type: in vivo, mouse; conditions: APPOSK mice, transnasal, every day for 1 month
# T1 construct: had accumulation of amyloid-β (Aβ) protein; from tissue; host or cells: brain (hippocampus) of APPOSK transgenic mice
# From the text: (§1) Each of Aβ oligomers (Aβ oligomers have been believed to cause the phosphorylation of tau and the decrease in synaptophysin), synaptophysin (a marker protein for a synapse) and phosphorylated tau was stained by an immunohistochemical staining method in accordance with the procedure described in Umeda et al. Brain 2016; 139: 1568-86. For the staining of the Aβ oligomers, 11A1 antibody (Immuno-Biological Laboratories Co, Ltd.) was used; for the staining of synaptophysin, SVP-38 antibody (Sigma) was used; and for the staining of phosphorylated tau, mouse monoclonal PHF-1 antibody (an anti-p-Ser396/404-tau antibody, provided by Peter Davies, Ph. d., Albert Einstein College of Medicine). After the staining, each of the Aβ oligomers, synaptophysin and phosphorylated tau was quantified using NIH image-J.
# [6] = test system: mitogen (division promoting factor)-activated protein (MAP) kinase; conditions: differentiated or undifferentiated human neuroblast SH-SY5Y; cited from earlier work
# Aβ42 = target: T2, Aβ42 (Homo sapiens, UniProt P05067); assay: Suppression of the toxicity of Aβ42; conditions: confirmed by the present inventors
# T2 construct: suppress the toxicity of Aβ42
# Aβ = Aβ (Homo sapiens, UniProt P05067); assay: In vitro formation of oligomers of Aβ
# synaptophysin = assay: Immunohistochemical staining and quantification of synaptophysin in hippocampus (SVP-38 antibody); assay type: in vivo, mouse; conditions: APPOSK mice; rifampicin 0.05 mg/day transnasal, every day for 1 month; listed as Reference Working Example 3
# From the text: as §1
# phosphorylated tau = assay: Immunohistochemical staining and quantification of phosphorylated tau in hippocampus (PHF-1 antibody); assay type: in vivo, mouse; conditions: APPOSK mice; rifampicin 0.05 mg/day transnasal, every day for 1 month; listed as Reference Working Example 3
# From the text: as §1
# tau = assay: In vitro formation of oligomers of tau
# α-synuclein = α-synuclein (Homo sapiens, UniProt P37840); assay: In vitro formation of oligomers of α-synuclein
# [7] = test system: AD model mouse in which Aβ is accumulated; assay: Oral administration to AD model mouse; assay type: in vivo; conditions: orally administered
# [8] = test system: FTD model mouse in which tau is accumulated; assay: Oral administration to FTD model mouse; assay type: in vivo; conditions: orally administered
# [9] = test system: α-synuclein transgenic (αSyn-Tg) mice each having an A53T mutation; assay: Morris water maze behavioral test (cognitive function) in synucleinopathy model mice; assay type: in vivo, mouse; conditions: αSyn-Tg 6 mo mice (DLB model); rifampicin 0.1 mg/day transnasal, every day for 1 month; listed as Reference Working Example 5
# Protocol: As synucleinopathy models, α-synuclein transgenic (αSyn-Tg) mice each having an A53T mutation were purchased from Jackson Laboratories. […] Therefore, in this Test Example, αSyn-Tg 6 mo mice and αSyn-Tg 9 mo mice were used as the subjects of administration.
# The motor function and the cognitive function of each of the model mice were confirmed by a motor function test and a cognitive function test as mentioned below. The motor function test was carried out using a rotarod. Each of the mice was placed on a rotor which could rotate at a speed of 5 rpm (5 rotations per minute), was then subjected to such a training that the mouse was allowed to walk on the rotor for 3 minutes, and was then placed on a rotor of which the speed of rotation could increase from 4 rpm to 40 rpm over 4 minutes, and the time (seconds) until the mouse fell off the rotor was measured (when the mouse was turned once while holding on to the rotor, it was deemed that the mouse fell off). The measurement was carried out twice per day, and an average value of the measurement values was determined. The cognitive function test was carried out in accordance with the method described in Umeda et al. Brain 2016; 139: 1568-86 by measuring the spatial reference memory of the mice using a Morris water maze (the cognitive function test in the below-mentioned examples was carried out in the same manner as in this Test Example). […]
# [10] = APPOSK mice, serum, rifampicin 0.05 mg/day transnasal, every day for 1 month, Mean ± SEM, n = 11
smiles,measurement,setting,value
"Oc1ccc(/C=C/c2cc(O)cc(O)c2)cc1 [resveratrol, 3,5,4′-trihydroxy-trans-stilbene]",Effectiveness on Alzheimer's disease compared with placebo,[1],the effectiveness of the administration of resveratrol could not been confirmed
same,Cognitive function (Morris water maze),"APPOSK mice [2]; APPOSK mice 13 mo, resveratrol 0.02 mg/day, every day for 1 month (Test Example 6)","the cognitive function-improving effect was observed, although the effect was exerted slowly"
same,Cognitive function (Morris water maze),"APPOSK mice [2]; APPOSK mice 13 mo, resveratrol 0.1 mg/day, every day for 1 month (Test Example 6)",the improvement of cognitive function was observed to a level close to that observed in the wild-type mice
same,Cognitive function (Morris water maze),"APPOSK mice [2]; APPOSK mice, resveratrol 0.02 mg/day alone, every day for 1 month (Test Example 3), listed as Reference Example 10",the cognitive function improving tendency was observed; also recorded: a slow cognitive function-improving effect on a neurodegenerative disease was observed
same,AST level,"APPOSK mice [3]; APPOSK mice (not shown), resveratrol 0.1 mg administered alone",about 86 IU/L
same,AST level / liver protection activity (in words),"APPOSK mice [3]; APPOSK mice (not shown), resveratrol 0.1 mg alone, compared with Reference Example 9 (CMC)",the AST level was decreased and a positive liver protection activity was confirmed
same,AST level (in words),"APPOSK mice [3]; APPOSK mice, resveratrol 0.02 mg/day alone, every day for 1 month, compared with Reference Example 9 (CMC)",AST was not reduced
same,Cognitive function (Morris water maze),"[4]; resveratrol 0.02 mg/day alone, listed as Reference Example 15",the cognitive function improving effect was developed slowly; also recorded: a slow cognitive function-improving effect on a neurodegenerative disease was observed
same,Effect to suppress the aggregation of a causative protein for a neurodegenerative disease,[5],weak
same,Removal of accumulated Aβ oligomers (immunostaining),"Aβ oligomers; resveratrol 0.02 mg/day alone, listed as Reference Example 10","the effect to remove the accumulated Aβ oligomers was observed, but the level of the effect was smaller than that in Example 1; also recorded: the accumulated Aβ oligomers removing effect was confirmed; also recorded: the significant removal of the accumulated oligomers was observed"
same,Phosphorylation of MAP kinase,[6],induces the phosphorylation of mitogen (division promoting factor)-activated protein (MAP) kinase
same,Effect to suppress the toxicity of Aβ42,Aβ42,significantly weaker compared with rifampicin
"CO[C@H]1/C=C/O[C@@]2(C)Oc3c(C)c(O)c4c(O)c(c(/C=N/N5CCN(C)CC5)c(O)c4c3C2=O)NC(=O)/C(C)=C\C=C\[C@H](C)[C@H](O)[C@@H](C)[C@@H](O)[C@@H](C)[C@H](OC(C)=O)[C@@H]1C [rifampicin, 3-(4-methylpiperazinyliminomethyl)rifamycin SV]",Inhibition of in vitro formation of oligomers of Aβ,Aβ,can inhibit the in vitro formation of oligomers
same,Cognitive function (Morris water maze),"APPOSK mice [2]; APPOSK mice, rifampicin 0.02 mg/day alone, every day for 1 month",the cognitive function improving tendency was observed
same,Improvement of memory impairment (Morris water maze),"APPOSK mice [2]; APPOSK mice, rifampicin 0.05 mg/day transnasal, every day for 1 month, listed as Reference Working Example 3",the improvement effect was at the same level as that in the wild-type mice; also recorded: the improvement effect was higher than that in the case of oral administration
same,ALT,APPOSK mice [3]; [10],40 ± 10 IU/L
same,AST,APPOSK mice [3]; [10],165 ± 32 IU/L
same,AST level (in words),"APPOSK mice [3]; APPOSK mice, rifampicin 0.02 mg/day alone, every day for 1 month, listed as Comparative Example 1","the increase in AST level, which indicated the occurrence of adverse side effects, was observed; also recorded: significantly reduced compared with the case of oral administration"
same,Synaptophysin recovery in the hippocampus (immunostaining),synaptophysin,the decreased synaptophysin was recovered; also recorded: the same level as that in the wild-type mice; also recorded: the effect was higher than that in the oral administration
same,Cognitive function (Morris water maze),[4]; rifampicin 0.02 mg/day alone,the cognitive function improving effect was developed slowly
same,Phosphorylated tau reduction in the hippocampus (immunostaining),phosphorylated tau,the amount of phosphorylated tau accumulated in the brain was decreased and high
same,Inhibition of in vitro formation of oligomers of tau,tau,can inhibit the in vitro formation of oligomers
same,Removal of accumulated Aβ oligomers (immunostaining),Aβ oligomers; rifampicin 0.02 mg/day alone,"the effect to remove the accumulated Aβ oligomers was observed, but the level of the effect was smaller than that in Example 1"
same,Inhibition of in vitro formation of oligomers of α-synuclein,α-synuclein,can inhibit the in vitro formation of oligomers
same,Effect to suppress the toxicity of Aβ42,Aβ42,can completely suppress the toxicity of Aβ42
same,Cognitive function,[7],can recover the cognitive function of the mouse
same,Cognitive function,[8],can recover the cognitive function of the mouse
same,Cognitive function / memory impairment (Morris water maze),[9],the improvement of memory impairment was observed from day 1 after the administration; also recorded: the cognitive function was recovered to the same level as that in normal Non-Tg mice
